{
  "source": "patent US20260027339A1",
  "about": "“FLEXIBLE IMPLANTABLE DEPOTS FOR CONTROLLED DRUG RELEASE” (Foundry Therapeutics, Inc., priority 2023, published 2026)",
  "origin": "cited, not measured here",
  "key": {"[1]": {"conditions": "at 25° C."}, "[2]": {"system": "rats"}},
  "note": "Where two headings read alike, the source gives them in different places.",
  "data": [
    {"smiles": "OCc1ccccc1", "note": "[benzyl alcohol]", "values": [
      {"measurement": "vapor pressure", "setting": "[1]", "result": 12.53}
    ]},
    {"smiles": "CCOC(=O)c1ccccc1C(=O)OCC", "note": "[diethyl phthalate]", "values": [
      {"measurement": "vapor pressure", "setting": "[1]", "result": 0.28, "unit": "Pa"}
    ]},
    {"smiles": "CC(=O)OCC(COC(C)=O)OC(C)=O", "note": "[triacetin]", "values": [
      {"measurement": "vapor pressure", "setting": "[1]", "result": 0.33, "unit": "Pa"}
    ]},
    {"smiles": "CCCCN1CCCCC1C(=O)Nc1c(C)cccc1C", "note": "(stereo not drawn) [bupivacaine]", "values": [
      {"measurement": "LD50", "setting": "[2]; intravenous", "result": 6, "unit": "mg/kg"},
      {"measurement": "LD50", "setting": "[2]; subcutaneous", "result": 43, "unit": "mg/kg"}
    ]},
    {"smiles": "O=C(OCc1ccccc1)c1ccccc1", "note": "[benzyl benzoate]", "values": [
      {"measurement": "vapor pressure", "setting": "[1]", "result": 0.03, "unit": "Pa"}
    ]}
  ]
}
